Experimental data taken from PubChem BioAssay (NCI).
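Cultured in 96-well plates, cells were exposed to test compound for 48 hours across five concentrations. GI50 = concentration required for 50% inhibition of growth. TGI is the concentration that stops growth completely.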

Assays:
Experiment in all cases: growth of human tumour cells (NCI), 48 h
SF-268 CNS = test system: SF-268 CNS
MDA-MB-231 breast = test system: MDA-MB-231 breast
NCI-H226 lung = test system: NCI-H226 lung
CCRF-CEM leukemia = test system: CCRF-CEM leukemia
U251 CNS = test system: U251 CNS
RPMI-8226 leukemia = test system: RPMI-8226 leukemia
HT29 colon = test system: HT29 colon
MDA-MB-435 = test system: MDA-MB-435
ACHN renal = test system: ACHN renal
SNB-19 CNS = test system: SNB-19 CNS
SN12C renal = test system: SN12C renal
SF-295 CNS = test system: SF-295 CNS
BT-549 breast = test system: BT-549 breast
HCT-116 colon = test system: HCT-116 colon
SF-539 CNS = test system: SF-539 CNS
TK-10 renal = test system: TK-10 renal
A498 renal = test system: A498 renal
OVCAR-8 ovarian = test system: OVCAR-8 ovarian
UACC-257 melanoma = test system: UACC-257 melanoma
HOP-92 NSCLC = test system: HOP-92 NSCLC
HL-60(TB) leukemia = test system: HL-60(TB) leukemia
OVCAR-4 ovarian = test system: OVCAR-4 ovarian
MOLT-4 leukemia = test system: MOLT-4 leukemia
T-47D breast = test system: T-47D breast
HCC-2998 colon = test system: HCC-2998 colon
SR leukemia = test system: SR leukemia
SK-MEL-2 melanoma = test system: SK-MEL-2 melanoma
HCT-15 colon = test system: HCT-15 colon
DU-145 prostate = test system: DU-145 prostate
A549 NSCLC = test system: A549 NSCLC
NCI-H460 lung = test system: NCI-H460 lung
M14 melanoma = test system: M14 melanoma
KM12 colon = test system: KM12 colon
IGROV1 ovarian = test system: IGROV1 ovarian
SNB-75 CNS = test system: SNB-75 CNS
CAKI-1 renal = test system: CAKI-1 renal
UO-31 renal = test system: UO-31 renal
COLO 205 colon = test system: COLO 205 colon
RXF 393 renal = test system: RXF 393 renal
PC-3 prostate = test system: PC-3 prostate
SK-OV-3 ovarian = test system: SK-OV-3 ovarian
HS 578T breast = test system: HS 578T breast
SK-MEL-28 melanoma = test system: SK-MEL-28 melanoma
K-562 leukemia = test system: K-562 leukemia
NCI-H522 lung = test system: NCI-H522 lung
UACC-62 melanoma = test system: UACC-62 melanoma
EKVX NSCLC = test system: EKVX NSCLC
NCI-H23 lung = test system: NCI-H23 lung
OVCAR-5 ovarian = test system: OVCAR-5 ovarian
SK-MEL-5 melanoma = test system: SK-MEL-5 melanoma
MALME-3M melanoma = test system: MALME-3M melanoma
786-0 renal = test system: 786-0 renal
HOP-62 NSCLC = test system: HOP-62 NSCLC
MCF7 breast = test system: MCF7 breast
OVCAR-3 ovarian = test system: OVCAR-3 ovarian
LOX IMVI melanoma = test system: LOX IMVI melanoma
SW-620 colon = test system: SW-620 colon
NCI/ADR-RES ovarian = test system: NCI/ADR-RES ovarian

For `Clc1ccc(CCC(Cn2ccnc2)Sc2c(Cl)cccc2Cl)cc1` (stereo unspecified), which GI50 (SF-268 CNS) is on record?
The GI50 was 4.36 µM.

And the TGI (SF-268 CNS)?
Its TGI is 20.2 µM.

And the GI50 (MDA-MB-231 breast)?
Its GI50 is 3.9 µM.

What about the TGI (MDA-MB-231 breast) of the same molecule?
The TGI was 18.8 µM.

What about the GI50 (NCI-H226 lung) of the same molecule?
The GI50 was 5.59 µM.

What about the TGI (NCI-H226 lung) of the same molecule?
Its TGI is 35.1 µM.

What about the GI50 (CCRF-CEM leukemia) of the same molecule?
Its GI50 is 3.4 µM.

And the TGI (CCRF-CEM leukemia)?
The TGI was 14.1 µM.

And the GI50 (U251 CNS)?
Its GI50 is 3.23 µM.

And the TGI (U251 CNS)?
The TGI was 14 µM.

And the GI50 (RPMI-8226 leukemia)?
The GI50 was 3.25 µM.

And the TGI (RPMI-8226 leukemia)?
The TGI was over 100 µM.

What about the GI50 (HT29 colon) of the same molecule?
Its GI50 is 1.78 µM.

What about the TGI (HT29 colon) of the same molecule?
Its TGI is 3.77 µM.

What about the GI50 (MDA-MB-435) of the same molecule?
The GI50 was 2.78 µM.

What about the TGI (MDA-MB-435) of the same molecule?
Its TGI is 10.3 µM.

What about the GI50 (ACHN renal) of the same molecule?
The GI50 was 4.32 µM.

What about the TGI (ACHN renal) of the same molecule?
Its TGI is 15.1 µM.

What about the GI50 (SNB-19 CNS) of the same molecule?
Its GI50 is 5.07 µM.

What about the TGI (SNB-19 CNS) of the same molecule?
The TGI was 48.7 µM.

What about the GI50 (SN12C renal) of the same molecule?
The GI50 was 2.82 µM.

And the TGI (SN12C renal)?
Its TGI is 14.9 µM.

And the GI50 (SF-295 CNS)?
The GI50 was 2.56 µM.

What about the TGI (SF-295 CNS) of the same molecule?
Its TGI is 11.9 µM.

And the GI50 (BT-549 breast)?
Its GI50 is 4.3 µM.

What about the TGI (BT-549 breast) of the same molecule?
The TGI was 15.1 µM.

And the GI50 (HCT-116 colon)?
The GI50 was 2.13 µM.

What about the TGI (HCT-116 colon) of the same molecule?
Its TGI is 5.3 µM.

What about the GI50 (SF-539 CNS) of the same molecule?
Its GI50 is 4.71 µM.

And the TGI (SF-539 CNS)?
The TGI was 17.8 µM.

And the GI50 (TK-10 renal)?
Its GI50 is 3.52 µM.

What about the TGI (TK-10 renal) of the same molecule?
The TGI was 11.9 µM.

And the GI50 (A498 renal)?
The GI50 was 1.59 µM.

What about the TGI (A498 renal) of the same molecule?
Its TGI is 6.66 µM.

And the GI50 (OVCAR-8 ovarian)?
Its GI50 is 3.15 µM.

And the TGI (OVCAR-8 ovarian)?
The TGI was 14.3 µM.

And the GI50 (UACC-257 melanoma)?
Its GI50 is 3.39 µM.

What about the TGI (UACC-257 melanoma) of the same molecule?
Its TGI is 13 µM.

What about the GI50 (HOP-92 NSCLC) of the same molecule?
Its GI50 is 1.79 µM.

What about the TGI (HOP-92 NSCLC) of the same molecule?
Its TGI is 7.23 µM.

And the GI50 (HL-60(TB) leukemia)?
The GI50 was 2.85 µM.

And the TGI (HL-60(TB) leukemia)?
The TGI was 5.72 µM.

What about the GI50 (OVCAR-4 ovarian) of the same molecule?
Its GI50 is 3.58 µM.

And the TGI (OVCAR-4 ovarian)?
Its TGI is 16.5 µM.

And the GI50 (MOLT-4 leukemia)?
The GI50 was 2.89 µM.

What about the TGI (MOLT-4 leukemia) of the same molecule?
Its TGI is 8.21 µM.

And the GI50 (T-47D breast)?
The GI50 was 2.25 µM.

And the TGI (T-47D breast)?
Its TGI is 10.5 µM.

And the GI50 (HCC-2998 colon)?
The GI50 was 2.85 µM.

What about the TGI (HCC-2998 colon) of the same molecule?
The TGI was 11.8 µM.

And the GI50 (SR leukemia)?
Its GI50 is 3.64 µM.

And the TGI (SR leukemia)?
Its TGI is 24 µM.

What about the GI50 (SK-MEL-2 melanoma) of the same molecule?
Its GI50 is 3.02 µM.

And the TGI (SK-MEL-2 melanoma)?
Its TGI is 7.29 µM.

And the GI50 (HCT-15 colon)?
The GI50 was 3.54 µM.

And the TGI (HCT-15 colon)?
The TGI was 13.7 µM.

What about the GI50 (DU-145 prostate) of the same molecule?
Its GI50 is 5.05 µM.

What about the TGI (DU-145 prostate) of the same molecule?
The TGI was 16.8 µM.

And the GI50 (A549 NSCLC)?
Its GI50 is 3.5 µM.

What about the TGI (A549 NSCLC) of the same molecule?
The TGI was 14.5 µM.

What about the GI50 (NCI-H460 lung) of the same molecule?
Its GI50 is 3.07 µM.

And the TGI (NCI-H460 lung)?
The TGI was 10.8 µM.

And the GI50 (M14 melanoma)?
Its GI50 is 4.29 µM.

What about the TGI (M14 melanoma) of the same molecule?
Its TGI is 14.7 µM.

What about the GI50 (KM12 colon) of the same molecule?
The GI50 was 3.19 µM.

What about the TGI (KM12 colon) of the same molecule?
The TGI was 11.2 µM.

What about the GI50 (IGROV1 ovarian) of the same molecule?
Its GI50 is 4.45 µM.

And the TGI (IGROV1 ovarian)?
The TGI was 18.1 µM.

And the GI50 (SNB-75 CNS)?
The GI50 was 15.4 µM.

What about the TGI (SNB-75 CNS) of the same molecule?
The TGI was 36.4 µM.

What about the GI50 (CAKI-1 renal) of the same molecule?
Its GI50 is 2.6 µM.

And the TGI (CAKI-1 renal)?
The TGI was 10.5 µM.

What about the GI50 (UO-31 renal) of the same molecule?
Its GI50 is 3.07 µM.

What about the TGI (UO-31 renal) of the same molecule?
The TGI was 13.8 µM.

What about the GI50 (COLO 205 colon) of the same molecule?
Its GI50 is 3.14 µM.

And the TGI (COLO 205 colon)?
Its TGI is 11.1 µM.

And the GI50 (RXF 393 renal)?
Its GI50 is 2.57 µM.

And the TGI (RXF 393 renal)?
Its TGI is 13.8 µM.

What about the GI50 (PC-3 prostate) of the same molecule?
The GI50 was 2.64 µM.

And the TGI (PC-3 prostate)?
The TGI was 12.6 µM.

What about the GI50 (SK-OV-3 ovarian) of the same molecule?
The GI50 was 10.9 µM.

And the TGI (SK-OV-3 ovarian)?
The TGI was 22.8 µM.

What about the GI50 (HS 578T breast) of the same molecule?
The GI50 was 3.28 µM.

And the TGI (HS 578T breast)?
Its TGI is 19.5 µM.

What about the GI50 (SK-MEL-28 melanoma) of the same molecule?
Its GI50 is 7.03 µM.

And the TGI (SK-MEL-28 melanoma)?
The TGI was 19.5 µM.

And the GI50 (K-562 leukemia)?
The GI50 was 3.28 µM.

What about the TGI (K-562 leukemia) of the same molecule?
Its TGI is 11.7 µM.

What about the GI50 (NCI-H522 lung) of the same molecule?
Its GI50 is 2.37 µM.

What about the TGI (NCI-H522 lung) of the same molecule?
Its TGI is 7.5 µM.

And the GI50 (UACC-62 melanoma)?
Its GI50 is 2.8 µM.

And the TGI (UACC-62 melanoma)?
The TGI was 12.5 µM.

What about the GI50 (EKVX NSCLC) of the same molecule?
Its GI50 is 2.64 µM.

And the TGI (EKVX NSCLC)?
The TGI was 17 µM.

What about the GI50 (NCI-H23 lung) of the same molecule?
The GI50 was 3.41 µM.

What about the TGI (NCI-H23 lung) of the same molecule?
Its TGI is 15.5 µM.

And the GI50 (OVCAR-5 ovarian)?
Its GI50 is 6.56 µM.

And the TGI (OVCAR-5 ovarian)?
The TGI was 20.4 µM.

And the GI50 (SK-MEL-5 melanoma)?
The GI50 was 2.08 µM.

And the TGI (SK-MEL-5 melanoma)?
The TGI was 4.88 µM.

What about the GI50 (MALME-3M melanoma) of the same molecule?
Its GI50 is 2.92 µM.

What about the TGI (MALME-3M melanoma) of the same molecule?
Its TGI is 8.21 µM.

And the GI50 (786-0 renal)?
The GI50 was 3.49 µM.

And the TGI (786-0 renal)?
Its TGI is 12.4 µM.

And the GI50 (HOP-62 NSCLC)?
The GI50 was 6.03 µM.

What about the TGI (HOP-62 NSCLC) of the same molecule?
Its TGI is 19.4 µM.

What about the GI50 (MCF7 breast) of the same molecule?
The GI50 was 3.43 µM.

What about the TGI (MCF7 breast) of the same molecule?
Its TGI is 13.2 µM.

And the GI50 (OVCAR-3 ovarian)?
Its GI50 is 3.34 µM.

And the TGI (OVCAR-3 ovarian)?
The TGI was 10.8 µM.

What about the GI50 (LOX IMVI melanoma) of the same molecule?
Its GI50 is 2.11 µM.

And the TGI (LOX IMVI melanoma)?
The TGI was 5.11 µM.

What about the GI50 (SW-620 colon) of the same molecule?
Its GI50 is 3.43 µM.

What about the TGI (SW-620 colon) of the same molecule?
The TGI was 13.9 µM.

What about the GI50 (NCI/ADR-RES ovarian) of the same molecule?
Its GI50 is 3 µM.

And the TGI (NCI/ADR-RES ovarian)?
Its TGI is 11.7 µM.
